Values quoted from earlier work in patent US6080760A, “Alpha 1A adrenergic receptor antagonists” (Merck & Co., Inc., priority 1998, dated 2000).

Columns and labels:
[1] = system: adrenergic receptors of the alpha1 subtype; details: reported in WO 92/0073
[2] = system: prostatic hyperplasia; details: reported in EP 0 204597

For `COc1cc2nc(N3CCN(C(=O)[C@H]4CCCO4)CC3)nc(N)c2cc1OC` [R(+) enantiomer of terazosin], the “selective binding to adrenergic receptors of the alpha1 subtype” value [1] is given as “selective ability”.
In the case of `COc1cc2nc(N(C)CCCNC(=O)C3CCCO3)nc(N)c2cc1OC` (centres unmarked) [alfuzosin], the “urination in cases of prostatic hyperplasia” value [2] is listed as “induce urination”.
